# Laboratory results from patent publication US9062899B2, “Pairs of working substances for absorption heat pumps, absorption refrigeration machines and heat transformers” (BASF SE, priority 2004, dated 2015).
# What was measured:
# [1] = partial pressure of water over aqueous 2-hydroxyethylammonium formate solution, FTIR spectroscopy in the gas phase; assay type: physicochemical
# Procedure: For this purpose, the partial pressure of water over an aqueous 2-hydroxyethylammonium formate solution was determined at a customary phase equilibrium temperature (by means of FTIR spectroscopy in the gas phase).
# [2] = miscibility of ionic liquid with working substance water; assay type: physicochemical
Structure (SMILES),factor by which the vapor pressure of water is reduced on dissolution in the ionic liquid [1],"partial pressure of water over the solution ([1]; 30.5° C., 84% by weight of 2-hydroxyethylammonium formate and 16% by weight of water, water itself about 40 mbar)","partial pressure of water over the solution ([1]; 34° C., 87% by weight of 2-hydroxyethylammonium formate and 13% by weight of water, water itself about 50 mbar)",miscibility with water [2]
NCCO.O=CO [2-hydroxyethylammonium formate],4,about 10 mbar,about 12 mbar,
CCn1cc[n+](C)c1.O=S(=O)([O-])C(F)(F)F [ethylmethylimidazolium triflate],,,,can be mixed with water
